Assays:
[1] = target: T1, His-His-USP7 (aa208-560, |C315A|) (Homo sapiens, UniProt Q93009, C315A); test: Evaluation of the inhibition of USP7 by the Fluorescence Intensity (FLINT) readings; type: biochemical; conditions: 0.25 nM His-His-USP7, compound incubated 60 minutes at 30° C., 500 nM Ubiquitin-Rhodamine-110 substrate; 50% reduction in kinetic rate
T1 construct: His-His-USP7 (aa208-560, |C315A|); His-His (N)
Summary of the method: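 0.25 nM His-His-USP7 (aa208–560, C315A) preincubated 60 min at 30 °C with compound in 100 mM Bicine pH 8.0, 0.01% Triton X-100, 1 mM TCEP, 10% DMSO. Reaction started with 500 nM ubiquitin-rhodamine-110 and fluorescence (Ex485/Em535) read every 3 min for 21 min. IC50 derived from kinetic-rate reduction over an 11-point curve, 4-parameter fit.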

[2] = test system: Z138 mantle cell lymphoma tumour cell lines; test: In vitro cytotoxicity, MTT assay; type: cell-based; conditions: Z138 cells exposed to the test compounds for 96 hours, cell viability vs DMSO treated cells
Summary of the method: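 Z138 cells exposed to compounds for 96 hours, then MTT added for 4 hours. Viable cells quantified from formazan absorbance at 540 nm.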

T1 sequence (Q93009 208-560 C315A): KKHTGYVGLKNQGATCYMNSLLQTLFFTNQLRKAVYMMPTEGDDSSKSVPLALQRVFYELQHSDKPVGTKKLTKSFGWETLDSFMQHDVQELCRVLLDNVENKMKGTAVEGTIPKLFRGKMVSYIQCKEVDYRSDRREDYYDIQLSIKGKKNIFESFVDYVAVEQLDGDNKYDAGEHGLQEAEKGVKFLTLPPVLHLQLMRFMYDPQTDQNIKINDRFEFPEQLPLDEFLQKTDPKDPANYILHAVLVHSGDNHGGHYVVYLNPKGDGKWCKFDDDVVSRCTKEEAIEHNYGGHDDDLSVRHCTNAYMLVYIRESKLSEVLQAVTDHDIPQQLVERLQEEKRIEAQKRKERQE

Row | Compound | IC50 [1] [nM] | IC50 ([2]; Homo sapiens, Z-138, 96 h) [µM] | IC50 [2] [µM]
1 | Cn1ccnc1C#C[C@@]1(F)CC[C@@H](C(=O)N2CCC(O)(Cn3cnc(Oc4ccc(F)cc4)c(N)c3=O)CC2)[C@H](c2ccccc2)C1 [Example 149, 5-amino-3-[(1-{[(1R,2R,4R)-4-fluoro-4-[2-(1-methylimidazol-2-yl)ethynyl]-2-phenylcyclohexyl]carbonyl}-4-hydroxypiperidin-4-yl)methyl]-6-(4-fluorophenoxy)pyrimidin-4-one] | 8.55 | 0.259 | –
2 | Cc1cnc(C#C[C@]2(F)CC[C@@H](C(=O)N3CCC(O)(Cn4cnc(Oc5ccc(F)cc5)c(N)c4=O)CC3)[C@H](c3ccccc3)C2)cn1 [Example 151, 5-amino-3-({1-[(1R,2R,4S)-4-fluoro-4-[2-(5-methylpyrazin-2-yl)ethynyl]-2-phenylcyclohexanecarbonyl]-4-hydroxypiperidin-4-yl}methyl)-6-(4-fluorophenoxy)-3,4-dihydropyrimidin-4-one] | 11.4 | 0.0191 | –
3 | CO[C@]1(C#Cc2cccnn2)CC[C@@H](C(=O)N2CCC(O)(Cn3cnc(Oc4ccc(F)cc4)c(N)c3=O)CC2)[C@H](c2ccccc2)C1 [Example 146, 5-amino-6-(4-fluorophenoxy)-3-[(4-hydroxy-{[(1R,2R,4R)-4-methoxy-2-phenyl-4-[2-(pyridazin-3-yl)ethynyl]cyclohexyl]carbonyl}piperidin-4-yl)methyl]pyrimidin-4-one] | 18.5 | – | 0.00597
4 | Nc1c(Oc2ccc(F)cc2)ncn(CC2(O)CCN(C(=O)[C@@H]3CC[C@](F)(C#Cc4ccc(F)cn4)C[C@H]3c3ccccc3)CC2)c1=O [Example 133, 5-amino-3-[(1-{[(1R,2R4R)-4-fluoro-4-[2-(5-fluoropyridin-2-yl)ethynyl]-2-phenylcyclohexyl]carbonyl}-4-hydroxypiperidin-4-yl)methyl]-6-(4-fluorophenoxy)pyrimidin-4-one] | 31.5 | 0.0187 | –
5 | Cc1ccc(C#C[C@@]2(F)CC[C@@H](C(=O)N3CC[C@](O)(Cn4cnc(Oc5ccc(F)cc5)c(N)c4=O)C(F)(F)C3)[C@H](c3ccccc3)C2)nn1 [Example 162, 5-amino-3-[[(4S)-3,3-difluoro-1-[(1R,2R,4R)-4-fluoro-4-[2-(6-methylpyridazin-3-yl)ethynyl]-2-phenylcyclohexanecarbonyl]-4-hydroxypiperidin-4-yl]methyl]-6-(4-fluorophenoxy)-3,4-dihydropyrimidin-4-one] | 10 | 0.00647 | –
6 | CO[C@]1(C#Cc2cnc(C)nc2)CC[C@@H](C(=O)N2CC[C@](O)(Cn3cnc(Oc4ccc(F)cc4)c(N)c3=O)C(F)(F)C2)[C@H](c2ccccc2)C1 [Example 177, 5-amino-3-{[(4S)-3,3-difluoro-4-hydroxy-1-[(1R,2R,4R)-4-methoxy-4-[2-(2-methylpyrimidin-5-yl)ethynyl]-2-phenylcyclohexanecarbonyl]piperidin-4-yl]methyl}-6-(4-fluorophenoxy)-3,4-dihydropyrimidin-4-one] | 33.3 | 0.0218 | –
7 | Nc1c(Oc2ccc(F)cc2)ncn(CC2(O)CCN(C(=O)[C@@H]3CCC(F)(F)C[C@H]3c3ccsc3)CC2)c1=O [Example 89, 5-amino-3-({1-[(1R,2R)-4,4-difluoro-2-(thiophen-3-yl)cyclohexane-1-carbonyl]-4-hydroxypiperidin-4-yl}methyl)-6-(4-fluorophenoxy)pyrimidin-4(3H)-one] | 92 | 0.055 | –
8 | Nc1c(Oc2ccc(F)cc2)ncn(CC2(O)CCN(C(=O)[C@@H]3CC[C@](F)(C#Cc4cccnn4)C[C@H]3c3ccccc3)CC2)c1=O [Example 145, 5-amino-3-[(1-{[(1R,2R,4R)-4-fluoro-2-phenyl-4-[2-(pyridazin-3-yl)ethynyl]cyclohexyl]carbonyl}-4-hydroxypiperidin-4-yl)methyl]-6-(4-fluorophenoxy)pyrimidin-4-one] | 8.66 | 0.00231 | –

More lines, main results first:

Row | IC50 [1] [nM] | Compound | IC50 ([2]; Homo sapiens, Z-138, 96 h) [µM] | IC50 [2] [µM]
9 | 90.3 | Nc1c(Oc2ccccc2)ncn(CC2(O)CCN(C(=O)[C@@H]3CC(F)(F)CC[C@H]3c3ccccc3)CC2)c1=O [Example 82, 5-amino-3-({1-[(1R,2R)-5,5-difluoro-2-phenylcyclohexane-1-carbonyl]-4-hydroxypiperidin-4-yl}methyl)-6-phenoxypyrimidin-4(3H)-one] | 0.18 | –
10 | 21 | Nc1c(Oc2cccc(O)c2)ncn(CC2(O)CCN(C(=O)[C@@H]3CCC(F)(F)C[C@H]3c3ccccc3)CC2)c1=O [Example 64, 5-amino-3-({1-[(1R,2R)-4,4-difluoro-2-phenylcyclohexnne-1-carbonyl]-4-hydroxypiperidin-4-yl}methyl)-6-(3-hydroxyphenoxy)pyrimidin-4(3H)-one] | 0.014 | –
11 | 38.7 | Nc1c(Oc2ccc(C=O)cc2)ncn(CC2(O)CCN(C(=O)[C@@H]3CCC(F)(F)C[C@H]3c3ccccc3)CC2)c1=O [Example 44] | 0.0736 | –
12 | 63.4 | Nc1c(Oc2ccc(F)cc2)ncn(CC2(O)CCN(C(=O)[C@@H]3CCC(F)(F)C[C@H]3c3ccccc3)CC2)c1=O [Example 5, 5-amino-3-({1-[(1R,2R)-4,4-difluoro-2-phenylcyclohexane-1-carbonyl]-4-hydroxypiperidin-4-yl}methyl)-6-(4-fluorophenoxy)pyrimidin-4(3H)-one] | 0.0435 | –
13 | 32 | Nc1c(Oc2ccc3c(c2)CNC3)ncn(CC2(O)CCN(C(=O)[C@@H]3CCC(F)(F)C[C@H]3c3ccccc3)CC2)c1=O [Example 32, 5-amino-3-({1-[(1R,2R)-4,4-difluoro-2-phenylcyclohexane-1-carbonyl]-4-hydroxypiperidin-4-yl}methyl)-6-[(2,3-dihydro-1H-isoindol-5-yl)oxy]pyrimidin-4(3H)-one] | 0.896 | –
14 | 10 | NCc1ccc(Oc2ncn(CC3(O)CCN(C(=O)[C@@H]4CCC(F)(F)C[C@H]4c4ccccc4)CC3)c(=O)c2N)cc1F [Example 65, 5-amino-6-[4-(aminomethyl)-3-fluorophenoxy]-3-({1-[(1R,2R)-4,4-difluoro-2-phenylcyclohexane-1-carbonyl]-4-hydroxypiperidin-4-yl}methyl)pyrimidin-4(3H)-one] | 0.386 | –
15 | 10.8 | Nc1c(Oc2ccc(C3CCCN3)cc2)ncn(CC2(O)CCN(C(=O)[C@@H]3CCC(F)(F)C[C@H]3c3ccccc3)CC2)c1=O (stereo partly drawn) [Example 34, 5-amino-3({1-[(1R,2R)-4,4-difluoro-2-phenylcyclohexane-1-carbonyl]-4-hydroxypiperidin-4-yl}methyl)-6-[4-(pyrrolidin-2-yl)phenoxy]pyrimidin-4(3H)-one] | 0.52 | –
16 | 83.1 | Cc1cccc(Oc2ncn(CC3(O)CCN(C(=O)[C@@H]4CCC(F)(F)C[C@H]4c4ccccc4)CC3)c(=O)c2N)c1 [Example 19, 5-amino-3-({1-[(1R,2R)-4,4-difluoro-2-phenylcyclohexane-1-carbonyl]-4-hydroxypiperidin-4-yl}methyl)-6-(3-methylphenoxy)pyrimidin-4(3H)-one] | 0.0716 | –
17 | 113 | Nc1c(Oc2ccc(CNCC(F)(F)F)cc2)ncn(CC2(O)CCN(C(=O)[C@@H]3CCC(F)(F)C[C@H]3c3ccccc3)CC2)c1=O [Example 73, 5-amino-3-({1-[(1R,2R)-4,4-difluoro-2-phenylcyclohexane-1-carbonyl]-4-hydroxypiperidin-4-yl}methyl)-6-(4-[[(2,2,2-trifluoromethyl)amino]methyl]phenoxy)pyrimidin-4(3H)-one] | 0.564 | –
